Article PMC10608614, “Biochemical Insights into a Novel Family 2 Glycoside Hydrolase with Both β-1,3-Galactosidase and β-1,4-Galactosidase Activity from the Arctic” (Marine Drugs, 2023)

Columns and labels:
rMaBGA [1] = molecular target: T1, rMaBGA (Marinomonas sp. BSi20584, UniProt Z9SNG8Y577); assay: steady-state kinetics, nonlinear Michaelis-Menten fit; galactose by coupled enzymatic assay; assay type: biochemical; conditions: pH and temperature not stated
T1 construct: predicted signal peptide (first 28 aa) removed; codon-optimised, pET-28a(+), E. coli BL21(DE3), Ni-NTA purified, tag not reported cut; about 100 kDa on SDS-PAGE
T1 sequence (Z9SNG8Y577 29-897): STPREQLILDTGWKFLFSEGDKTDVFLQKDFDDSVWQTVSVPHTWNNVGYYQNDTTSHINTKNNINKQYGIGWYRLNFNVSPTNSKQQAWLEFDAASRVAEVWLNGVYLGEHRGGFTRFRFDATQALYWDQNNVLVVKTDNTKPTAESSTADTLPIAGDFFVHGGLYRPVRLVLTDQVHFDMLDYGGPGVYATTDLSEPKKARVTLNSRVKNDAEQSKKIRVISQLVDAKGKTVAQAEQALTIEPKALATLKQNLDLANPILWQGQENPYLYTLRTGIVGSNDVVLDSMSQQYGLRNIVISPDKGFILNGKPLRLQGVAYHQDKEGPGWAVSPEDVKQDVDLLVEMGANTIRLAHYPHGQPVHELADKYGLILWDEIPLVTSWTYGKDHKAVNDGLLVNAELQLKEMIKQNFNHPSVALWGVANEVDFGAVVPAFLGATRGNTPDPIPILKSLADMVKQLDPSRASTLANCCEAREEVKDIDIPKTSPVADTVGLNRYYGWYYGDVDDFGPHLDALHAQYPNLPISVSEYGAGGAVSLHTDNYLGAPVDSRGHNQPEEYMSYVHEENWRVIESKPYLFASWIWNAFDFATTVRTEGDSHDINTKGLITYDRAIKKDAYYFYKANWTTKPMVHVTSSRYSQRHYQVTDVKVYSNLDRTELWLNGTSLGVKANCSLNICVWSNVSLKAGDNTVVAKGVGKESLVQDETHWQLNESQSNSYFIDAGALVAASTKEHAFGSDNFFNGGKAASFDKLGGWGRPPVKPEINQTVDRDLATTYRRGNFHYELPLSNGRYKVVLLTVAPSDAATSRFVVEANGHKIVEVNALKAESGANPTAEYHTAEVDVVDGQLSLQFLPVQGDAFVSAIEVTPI
Text: steady-state kinetics, nonlinear Michaelis-Menten fit; galactose by coupled enzymatic assay on rMaBGA

rMaBGA [2] = molecular target: T1, rMaBGA; assay: steady-state kinetics, nonlinear Michaelis-Menten fit; o-nitrophenol absorbance at […] nm; assay type: biochemical; conditions: 0.1–10 mM substrate; standard assay 10 mM PBS, 30 °C (not restated for kinetics)

## CC(=O)N[C@H]1C(O)O[C@H](CO)[C@@H](O)[C@@H]1O[C@@H]1O[C@H](CO)[C@H](O)[C@H](O)[C@H]1O (stereo partly drawn) [Galβ-(1,3)-GlcNAc]
rMaBGA [1]; 1–40 mM substrate
  Km: 2110 ± 484 µM

## CC(=O)N[C@H]1C(O)O[C@H](CO)[C@@H](O[C@@H]2O[C@H](CO)[C@H](O)[C@H](O)[C@H]2O)[C@@H]1O (stereo partly drawn) [Galβ-(1,4)-GlcNAc]
rMaBGA [1]; 1–50 mM substrate
  Km: 7020 ± 1180 µM

## O=[N+]([O-])c1ccccc1O[C@@H]1O[C@H](CO)[C@H](O)[C@H](O)[C@H]1O [ONPG]
rMaBGA [2]
  Km: 294 ± 44 µM
